Test results: patent US20090186361A1, “METHODS OF PREDICTING THE PHARMACEUTICAL TOXICITY OF TAXANES” (priority 2008, published 2009)

Tested on: TUBB gene locus
Assay: Regression of Toxicity Index on TUBB SNP genotype of recipient subjects
Assay type: in vivo, human
From the text: The GENOMELAB SNPSTREAM™ (Beckman) was utilized to accommodate up to 92,000 genotypes per day. This automated, multiplexed system can process up to 48 SNPs in each well of an arrayed 384-well plate. The SNPSTREAM™ operates at a consistent cost per genotype or per sample, regardless of run throughput, allowing users to cost-effectively zero in on targets with low-throughput studies as well as conduct high-throughput analyses.
The SNPSTREAM™ Genotyping System features a protocol with three steps. The technology is based on single-based primer extension technology. The system's high sensitivity delivers results using as little as 2 ng of genomic DNA. SNPWARE™ reagent kits were used. The kits included ready-to-use reagents, all performed in the original PCR plate according to the manufacturer's instructions, and incorporated herein by reference in its entirety.
Multiplexed reactions were spatially resolved on a SNPWARE™ Tag Array plate. Each of the 384 wells in a plate contained 16 or 52 unique oligonucleotides of a known sequence, or tag. Each tag on the plate was complementary to one of the tags of the 12 or 48 extension primers, plus four controls to ensure accuracy. After transfer to the Tag Array plate, each SNP was hybridized to its complementary tag. SNPs were then identified by their position in the well.
The process involved a multiplex PCR followed by an annealing reaction of the oligonucleotide to the specific PCR product. Next the oligonucleotide was extended by a single base which was fluorescently labeled with a terminating NTP and finally detected by two-colored fluorescence specific for the allele.
For each SNP, the -PCRU and -PCRL primers were first used to amplify a relevant DNA fragment surrounding the target SNP site. The components per reaction were: H2O, 3.0 μl; 10× PCR Buffer II, 0.5 μl; MgCl2 (25 mM), 1.0 μl; dNTPs (2.5 mM each), 0.18 μl; PCR Primer Pool (2.5 μM each), 0.1 μl; AMPLITAQ GOLD™ (5 U/μl), 0.125 μl for a total volume of 5.0 μl per reaction.
Primer -SNPU or SNPL was then used for single-base extension reaction. The thermocycler program was as follows: Step 1: 96° C. for 3 min; Step 2: 94° C. for 20 sec; Step 3: 40° C. for 11 sec; and Step 5: return to step 2 59 times, and finally to hold at 4° C.
Thirty (30) recipient subjects already receiving treatment with paclitaxel were screened for the presence of SNPs in the CYP2C8 and TUBB loci. Clinical data from each of the recipient subjects was used to first calculate a Toxicity Index (TI) value for each individual according to the method presented in Example 1, above. The genotype for each recipient subject with regard to the SNPs of CYP2C8 and TUBB was determined using SNPWARE™ and single base extension according to the methods of Example 4, above.
For the CYP2C8 locus, two genotypes for the rsl 058932 SNP (as shown in FIG. 1) were considered: heterozygous TC and homozygous CC. For the TUBB locus (SNP rs3132584), the heterozygous SNP CA, and the combined homozygous AA and CC variants, were considered.
A preliminary data analysis focused on the relationship between the Toxicity Index and the recipient subjects' demographic/genetic information. […] Univariate linear regression analysis was conducted first to find significant covariates in predicting the Toxicity Index in one of five cycles, then multivariable analysis was used to determine the best model in fitting the data. A mixed model for repeated measurement was implemented in modeling Toxicity Index in the first five cycles, and also in all cycles. Autoregressive covariance structure was used in the mixed model. SAS and Minitab were used in the analysis.
Covariates in the analysis included recoded binary demographic variables (sex, race, site, grade, stage) and recoded binary genetic variables.
Multivariable regression analysis was used to find the best model in predicting the Toxicity Index in each of the first five cycles.

CC(=O)O[C@H]1C(=O)[C@@]2(C)[C@H]([C@H](OC(=O)c3ccccc3)[C@]3(O)C[C@H](OC(=O)[C@H](O)[C@@H](NC(=O)c4ccccc4)c4ccccc4)C(C)=C1C3(C)C)[C@]1(OC(C)=O)CO[C@@H]1C[C@@H]2O [Paclitaxel, (2aR,4S,4aS,6R,9S,11S,12S,12aR,12bS)-1,2a,3,4,4a,6,9,10,11,12,12a,12b-Dodecahydro-4,6,9,11,12,12b-hexahydroxy-4a,8,13,13-tetramethyl-7,11-methano-5H-cyclodeca(3,4)benz(1,2-b)oxet-5-one 6,12b-diacetate, 12-benzoate, 9-ester with (2R,3S)-N-benzoyl-3-phenylisoserine]
Coef, regression TI1 versus CYP2C8_2_31, TUBB2: predictor TUBB2 (30 recipient subjects, rs3132584, heterozygous CA vs combined AA and CC, P 0.039): −0.9135 | Para. Est., TI2 vs TUBB4 (multivariable) (multivariable analysis best model, cycle 2, rs1061397, CC = 1, TC/TT = 0, P-value 0.037): −1.185 | Para. Est., TI1 vs TUBB2 (multivariable) (multivariable regression with CYP2C8_2_31, cycle 1, rs3132584, CA = 1, CC/AA = 0, P-value 0.039): 0.914 | Para. Est., TI1 vs TUBB1 (univariate linear regression, cycle 1, rs8233, AG = 1, AA/GG = 0, P-value 0.042): 0.975 | Para. Est., TI1 vs TUBB2 (univariate linear regression, cycle 1, rs3132584, CA = 1, CC/AA = 0, P-value 0.042): 0.975 | Para. Est., TI2 vs TUBB3 (univariate linear regression, cycle 2, rs25527, CC = 1, TC/TT = 0, P-value 0.047): −1.062 | Para. Est., TI2 vs TUBB4 (univariate linear regression, cycle 2, rs1061397, CC = 1, TC/TT = 0, P-value 0.037): −1.185
